Tested on: 3′,5′-cAMP phosphodiesterase (PDE)
Experiment: Test for inhibitory activity on PDE (hydrolysis of cAMP to AMP, AMP measured by HPLC)
Format: biochemical
Conditions: reaction time 5 minutes, lipid extract 0.1% in DMSO, theophylline 0.2% in DMSO
Description: The principle of the test is based on the hydrolysis of cyclic 3′5′-adenosine monophosphate(cAMP) to adenosine monophosphate (AMP). The formation of AMP is measured by HPLC (high performance liquid chromatography) analysis.
The solutions of the reagents are prepared in 0.05 M Tris-HCl buffer at pH 7.5.
The lipid extracts to be tested are at a concentration of 0.1% in DMSO.
The same experiment is carried out with the reference active product theophylline (H. Kather, A. Scheurer, Effects of different phosphodiesterase inhibitors on the antilipolytic action of insulin in human adipocytes: Horm. Metabol. Res. 19 (1987) 379-381). Likewise, B. B. Fredholm, E. Lindger, Acta pharmacol. et toxicol., 54 (1984), pp. 64-71, “The effect of alkylxanthines and other phosphodiesterase inhibitors on adenosine receptor mediated decrease in lipolysis and cyclic AMP accumulation in rat fat cells” . . . These tests are reference tests for those skilled in the art.
The theophylline tested (SIGMA/Ref. T1633) is at a concentration of 0.2% in DMSO.
The composition of the reaction media is described below. […]
The amount of AMP formed is measured after a reaction time of 5 minutes by calculating the integration area of the AMP peak on the chromatogram produced by the HPLC apparatus (KONTRON S. A.). […]
The amount of AMP due to the action of PDE is measured after a reaction time of 5 minutes. […]

Cn1c(=O)c2[nH]cnc2n(C)c1=O [Theophylline, theophylline]
A (%) percentage inhibition of PDE: 35%
Integration area of AMP (DMSO control 40.80): 26.52

— patent US6447782B1, “Lipid extract of the Skeletonema algae” (Parfums Christian Dior, priority 1998, dated 2002)
